From paper PMC12040169 (PLOS Biology, 2025)

Assay: in vitro
Conditions: human, hela cells

Row | Compound | viability at 28.5 h, 10 µM (% viability) [%] | viability at 28.5 h, 10 µM [%]
1 | Cc1ccc(CSCc2nc3ccccc3[nH]2)cc1 [CBK265238] | 90 | –
2 | COC1C(O)C(CO)OC1n1cc(F)c(SC)nc1=O (stereo not drawn) [CBK201267] | 106 | –
3 | CC(=O)N1CCC(n2c(C3CC3)nc3sc(C)c(C)c3c2=O)CC1 [CBK282369] | 85.2 | –
4 | COc1cccc2cc(C(=O)NCc3ccc4c(c3)OCO4)oc12 [CBK149797] | 90.9 | –
5 | COc1cnc(-c2cccc(C(F)(F)F)c2)c(NC(=O)Cc2ccccc2)n1 [CBK145308] | 104 | –
6 | CCn1nc(-c2ccc(C)o2)nc1CC1NC(=O)c2ccccc21 (stereo not drawn) [CBK306834] | 87 | –
7 | Cc1ccc(S(=O)(=O)c2ccc(C)c(S(=O)(=O)N3CCOCC3)c2)cc1S(=O)(=O)N1CCOCC1 [CBK261677] | 94.1 | –
8 | CCCCCn1c(-c2ccccc2)n[nH]c1=O [CBK013288] | 83.3 | –
9 | c1cncc(CN2CCC[C@@H]2CN2CCCC2)c1 [CBK149101C] | 99.3 | –
10 | O=C(NC1CCCCC1)NS(=O)(=O)c1ccc(CCNC(=O)c2cnc3ccccc3n2)cc1 [CBK013051] | 87.1 | –
11 | CC(C)NC(=O)N1CCCC1c1nc(-c2ccc(Cl)cc2)c2ccccn12 (stereo not drawn) [CBK046947] | 84 | –
12 | O=C(NCc1nnc(-c2cccs2)o1)c1ccccc1-c1ccccc1 [CBK286293] | 112 | –
13 | CC(=O)Nc1cccc(-c2cnc(N)c(NC3CCOCC3)n2)c1 [CBK063845] | 107 | –
14 | CCOC(=O)c1cnn(C2CCCN(Cc3cc[nH]n3)C2)c1 (stereo not drawn) [CBK305125] | 87.4 | –
15 | C=Cn1ncc(CN2CCN(C3CCCCC3)C(=O)C2)c1C [CBK282526] | 107 | –
16 | CCN(CC(=O)NCc1ccc(F)cc1)C(=O)c1cc(C#N)c[nH]1 [CBK305221] | 87.9 | –
17 | Cc1cccc(CN2CCC(NC(=O)c3cccc4nn[nH]c34)CC2)c1 [CBK305411] | 92.1 | –
18 | O=C(N[C@H]1C[C@H]2C(=O)Nc3ccccc3C(=O)N2C1)c1ccccc1 [CBK289354] | 103 | –
19 | COc1ccc(Cn2nc3nnc(-c4ccccc4)c(-c4ccccc4)n3c2=O)cc1 [CBK286180] | 88.8 | –
20 | COc1cc2c(cc1OC)CN(CC1CCCCC1)CC2 [CBK138321] | 101 | –
21 | O=C(NC(c1ccc2ccccc2n1)c1cccs1)C1CCNCC1 (stereo not drawn) [CBK148331] | 98.9 | –

Row | Compound | viability at 28.5 h, 10 µM (% viability) [%] | viability at 28.5 h, 10 µM [%]
22 | CN(C)CCNC(=O)c1cccc(-c2cnc(N)c(N3CCN(C)CC3)n2)c1 [CBK063393] | 95 | –
23 | CCn1cc(CN2CCOC(c3cccc(-c4ccc(OC)cc4)n3)C2)c(C)n1 (stereo not drawn) [CBK286250] | 84.4 | –
24 | CCCCC1(COC(C)=O)OC(=O)Nc2ccc(Br)cc21 (stereo not drawn) [CBK010195] | 91.1 | –
25 | O=[N+]([O-])c1cccc(-c2noc([C@@H]3C[C@@H](O)CN3C3CCOCC3)n2)c1 [CBK288847] | 101 | –
26 | COc1ccc(-c2ccccc2NC(=O)c2cccc(CN3CCCC3=O)c2)cc1 [CBK285865] | 91.4 | –
27 | O=C(COc1ccccc1)C(C(=O)c1ccccc1)=C1Nc2ccccc2N1 [CBK263725] | 97.8 | –
28 | COc1ccc(NC(=O)C(OC)c2ccccc2)cc1Cl (stereo not drawn) [CBK264098] | 95.2 | –
29 | O=C(NC(=S)N1CCN(CCN2C(=O)c3cccc4cccc(c34)C2=O)CC1)c1ccc2c(c1)OCO2 [CBK263577] | 82.2 | –
30 | COc1ncccc1CNC(=O)Cn1ccc(=O)[nH]c1=O [CBK305596] | 99.9 | –
31 | Nc1ncc(-c2cccc3cccnc23)nc1NCc1ccncc1 [CBK063622] | 87.4 | –
32 | O=C(Nc1cnc(-c2cccc(C(F)(F)F)c2)c(-c2cccnc2)n1)c1cc(-c2ccco2)n[nH]1 [CBK036878] | 104 | –
33 | O=C(CCNc1n[nH]c(=O)[nH]c1=O)N/N=C\c1ccccc1F [CBK263093] | 86.3 | –
34 | Cc1noc(C2(O)CCN(Cc3sccc3Cl)C2)n1 (stereo not drawn) [CBK304863] | 97.5 | –
35 | CCC(C)C(NC(=O)Cc1c[nH]c2ccccc12)C(=O)O (stereo not drawn) [CBK286720] | 91 | –
36 | CCS(=O)(=O)Nc1ccc(C(=O)N2CCN(c3ccccc3)CC2)cc1 [CBK304345] | 112 | –
37 | O=C(O)C1(Oc2ccc3ncccc3c2)CCN(C2CCCCC2)CC1 [CBK306591] | 92.4 | –
38 | CC(C)CCNC(=O)N(CCc1ccccc1)Cc1ccccc1 [CBK155351] | 90.8 | –
39 | N=C1NC(=O)C(CC(=O)Nc2cccc([N+](=O)[O-])c2)S1 (stereo not drawn) [CBK263944] | 87.9 | –
40 | CC(C)(C)Nc1cc(NCCc2ccccc2)nc(N)n1 [CBK012708] | 86.8 | –
41 | CNC(=O)Oc1ccccc1/C=N/N(C)C [CBK023194] | – | 97.5
42 | CCn1c(C2CC(=O)N(c3ccc(C)cc3C)C2)nc2ccccc21 (stereo not drawn) [CBK287505] | 83.1 | –

Row | Compound | viability at 28.5 h, 10 µM (% viability) [%] | viability at 28.5 h, 10 µM [%]
43 | Cc1cc(C)nc(NC2=NCCN2C(=S)Nc2ccccc2)n1 [CBK266481] | 95.7 | –
44 | Cc1ccc(S(=O)(=O)NC2c3cccc4cccc(c34)C2Sc2nnc(N)s2)cc1 (stereo not drawn) [CBK265835] | 107 | –
45 | Cn1c(Cc2cccc3ccccc23)nnc1SCc1ccc([N+](=O)[O-])cc1 [CBK265898] | 93.6 | –
46 | COc1ccccc1N1CCN(C(=O)CN2C(=O)c3ccccc3C2=O)CC1 [CBK091501] | 95.5 | –
47 | CCOC(=O)c1cnn2c(O)cc(CN3CCCC3c3ccsc3)nc12 (stereo not drawn) [CBK305647] | 96.1 | –
48 | Cc1ccc(-n2ncc(C(=O)N3CCc4ccccc4C3)c2NC(=O)c2ccco2)cc1C [CBK267207] | 100 | –
49 | Cc1ccc(S(=O)(=O)N2CCN(Cc3cc(Br)ccc3O)CC2)cc1 [CBK264242] | 98.5 | –
50 | CC(=O)N1CCC(N2C[C@H](O)C[C@H]2c2nc(C3CC3)no2)CC1 [CBK288845] | 93.6 | –
51 | CCCCOC(=O)c1ccc(NC(=O)NCCc2cccs2)cc1 [CBK043381] | 86 | –
52 | CC1=Nc2c(ccc3nsnc23)NC(=O)C1 [CBK019676] | 97.1 | –
53 | CCOc1ccc(S(=O)(=O)N(C)CC(=O)O)cc1 [CBK270032] | 90.4 | –
54 | Cc1cc(C)n(CCCNC(=O)c2ncoc2-c2ccc(F)cc2)n1 [CBK282357] | 91.3 | –
55 | CNS(=O)(=O)c1cc(C(=O)NC2CCCc3ccccc32)n(C)c1 (stereo not drawn) [CBK305048] | 103 | –
56 | O=C(Nc1ccc(O)cc1C(=O)O)c1ccc2c(c1)C(=O)N(Cc1ccccc1)C2=O [CBK266540] | 88.7 | –
57 | COc1ccccc1C(NC(=O)C1CCN(CCCN2C(=O)CC3CCCCC3C2=O)CC1)c1ccccn1 (stereo not drawn) [CBK147940] | 95 | –
58 | Cc1ccc(C(=O)NC(C)c2nnc(SCC(=O)c3ccc(Br)cc3)n2C)cc1 (stereo not drawn) [CBK266183] | 93.8 | –
59 | Cc1ccc2c(c1)c(NS(C)(=O)=O)nn2Cc1ccc(C#N)cc1 [CBK048643] | 94.2 | –
60 | O=C(O)c1ccc(/C=C/C(=O)c2ccc3c(c2)OCCO3)cc1 [CBK262173] | 89.1 | –
61 | O=C(c1cc(Br)cc2c1OCC2)N1CCCCC1 [CBK007109] | 91.8 | –
62 | O=S(=O)(c1ccccc1)c1nc(N2CCNCC2)cn2ccnc12 [CBK154875T] | 94.7 | –
63 | COc1cc(/C=c2\sc3nc(-c4ccccc4OC(C)=O)nn3c2=O)ccc1OCc1ccccc1 [CBK264575] | 99.2 | –
